From patent publication US6448401B1, “Process for water soluble azole compounds” (Bristol-Myers Squibb Company, priority 2000, dated 2002)
Converted amounts (≈) assume the structure as drawn.

Columns and labels:
aqueous solubility = conditions: for solubility (in words): crystalline salts
[1] = stability (in solution / of salts); conditions: for stability (in words): crystalline salts
[2] = conversion of prodrug to parent drug in vivo

## CC(C)(C)N.C[C@@H](c1nc(-c2ccc(C#N)cc2)cs1)[C@@](Cn1cncn1)(OCOP(=O)(O)O)c1ccc(F)cc1F [Example 4, Tert-butyl amine salt of (2R,3R)-3-[4-(4-cyanophenyl)thiazol-2-yl]-2-(2,4-difluorophenyl)-1-(1H-1,2,4-triazol-1-yl)-2-[(dihydrogenphosphonoxy)methoxy]butane]
Aqueous solubility
  solubility (in words): good solubility
[1]
  stability (in words): good solubility and stability

## C[C@@H](c1nc(-c2ccc(C#N)cc2)cs1)[C@@](Cn1cncn1)(OCOP(=O)(O)O)c1ccc(F)cc1F.NCCCC[C@H](N)C(=O)O.NCCCC[C@H](N)C(=O)O [Example 3, Bis lysine salt of (2R,3R)-3-[4-(4-cyanophenyl)thiazol-2-yl]-2-(2,4-difluorophenyl)-1-(1H-1,2,4-triazol-1-yl)-2-[(dihydrogenphosphonoxy)methoxy]butane]
Aqueous solubility
  solubility (in words): good solubility
[1]
  stability (in words): good solubility and stability

## C[C@@H](c1nc(-c2ccc(C#N)cc2)cs1)[C@](O)(Cn1cncn1)c1ccc(F)cc1F [(2R,3R)-3-[4-(4-cyanophenyl)thiazol-2-yl]-2-(2,4-difluorophenyl)-1-(1 H-1,2,4-triazol-1-yl)-butan-2-ol, reference compound]
Aqueous solubility; water, pH 6.8, water
  solubility: 0.6 µg/mL (≈ 0.00137 mM)

## C[C@@H](c1nc(-c2ccc(C#N)cc2)cs1)[C@@](Cn1cncn1)(OCOP(=O)(O)O)c1ccc(F)cc1F [Example 2, (2R,3R)-3-[4-(4-cyanophenyl)thiazol-2-yl]-2-(2,4-difluorophenyl)-1-(1H-1,2,4-triazol-1-yl)-2-[(dihydrogenphosphonoxy)methoxy]butane]
Aqueous solubility; aqueous solution, pH 4.3, aqueous buffer
  solubility: 5000 to 6000 µg/mL (≈ 9.13 to 11 mM)
Aqueous solubility; aqueous solution, pH 7, aqueous buffer
  solubility: > 10000 µg/mL
[1]; in solution
  stability in solution: stable in solution
[2]
  conversion to parent drug in vivo: readily converted to parent drug in vivo
